In patent US20250074920A1, “MACROCYCLIC COMPOUNDS AND USE AS KINASE INHIBITORS” (BLOSSOMHILL THERAPEUTICS, INC., priority 2022, published 2025):

Columns and labels:
Assay in all cases: KINOMEscan kinase binding assay
[1] = tested on: FLT3; conditions: at 1 μM
Outline: (§1)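 Dissociation constants came from the amount of kinase captured on the solid support across a test compound concentration series. Captured kinase, T7 phage-fused or HEK-293-made and DNA-tagged, was read by qPCR after a 1 h room-temperature binding step.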

[2] = tested on: FLT3(R834Q); conditions: at 1 μM
Outline: as §1

[3] = tested on: JAK2(JH1domain-catalytic)
Outline: (§2)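 qPCR read-out of kinase retained on ligand-coated streptavidin beads. Binding buffer: 20% SeaBlock, 0.17×PBS, 0.05% Tween 20, 6 mM DTT; 1 h RT with shaking. % Ctrl = (test − positive control)/(negative control − positive control)×100; lower values mean stronger binding.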

[4] = tested on: ABL1(Q252H)-nonphosphorylated; conditions: at 1 μM
Outline: as §1

[5] = tested on: KIT(A829P); conditions: at 1 μM
Outline: as §1

[6] = tested on: FGFR3(G697C); conditions: at 1 μM
Outline: as §1

[7] = tested on: MERTK; conditions: at 1 μM
Outline: as §1

[8] = tested on: VEGFR2; conditions: at 1 μM
Outline: as §1

[9] = tested on: EGFR(S752-1759del); conditions: at 1 μM
Outline: as §2

[10] = tested on: ROS1; conditions: at 1 μM
Outline: as §1

[11] = tested on: ABL1-nonphosphorylated; conditions: at 1 μM
Outline: as §1

[12] = tested on: CTK; conditions: at 1 μM
Outline: as §1

[13] = tested on: LYN; conditions: at 1 μM
Outline: as §1

[14] = tested on: ABL1(Y253F)-phosphorylated; conditions: at 1 μM
Outline: as §1

[15] = tested on: CSF1R-autoinhibited; conditions: at 1 μM
Outline: as §1

[16] = tested on: TYK2(JH2domain-pseudokinase)
Outline: as §2

[17] = tested on: BRK; conditions: at 1 μM
Outline: as §1

[18] = tested on: SYK; conditions: at 1 μM
Outline: as §1

[19] = tested on: FLT4; conditions: at 1 μM
Outline: as §1

[20] = tested on: ITK; conditions: at 1 μM
Outline: as §1

[21] = tested on: HCK; conditions: at 1 μM
Outline: as §1

[22] = tested on: DDR2; conditions: at 1 μM
Outline: as §1

[23] = tested on: FLT3-autoinhibited; conditions: at 1 μM
Outline: as §1

[24] = tested on: TIE1; conditions: at 1 μM
Outline: as §1

[25] = tested on: TIE2; conditions: at 1 μM
Outline: as §1

[26] = tested on: FLT3(K663Q); conditions: at 1 μM
Outline: as §1

[27] = tested on: TEC; conditions: at 1 μM
Outline: as §1

[28] = tested on: EPHB4; conditions: at 1 μM
Outline: as §1

[29] = tested on: ABL1(F317L)-phosphorylated; conditions: at 1 μM
Outline: as §1

[30] = tested on: BMX; conditions: at 1 μM
Outline: as §1

[31] = tested on: LTK; conditions: at 1 μM
Outline: as §1

[32] = tested on: FES; conditions: at 1 μM
Outline: as §1

[33] = tested on: BLK; conditions: at 1 μM
Outline: as §1

[34] = tested on: BTK; conditions: at 1 μM
Outline: as §1

[35] = tested on: EGFR(L858R, T790M); conditions: at 1 μM
Outline: as §2

[36] = tested on: TRKC; conditions: at 1 μM
Outline: as §1

[37] = tested on: YES; conditions: at 1 μM
Outline: as §1

[38] = tested on: INSRR; conditions: at 1 μM
Outline: as §1

[39] = tested on: EGFR(E746-A750del); conditions: at 1 μM
Outline: as §1

[40] = tested on: TYRO3; conditions: at 1 μM
Outline: as §1

[41] = tested on: LCK; conditions: at 1 μM
Outline: as §1

Structure (SMILES): Cc1cc2c([nH]1)/C=C1\C(=O)Nc3c(Cl)cc(cc31)-c1cn(C)nc1COC[C@@H](C)N(C)C2=O [Cpd. 5, [3a(4)Z,10R]-20-chloro-6,9,10,15-tetramethyl-10,11,13,15-tetrahydro-2H-1,17-(ethanediylidene)pyrazolo[4,3-m]dipyrrolo[3,2-f:3′,4′-i][1,4]oxazacyclopentadecine-3,8(5H,9H)-dione]
- % Ctrl [1]: 94%
- % Ctrl [2]: 98%
- % Ctrl ([3]; JAK2(JH1domain-catalytic), at 1 μM): 89%
- Kd ([3]; read-out: JAK2(JH1 domain-catalytic) Kd): > 10 µM
- % Ctrl [4]: 79%
- % Ctrl [5]: 84%
- % Ctrl [6]: 93%
- % Ctrl [7]: 86%
- % Ctrl [8]: 92%
- % Ctrl [9]: 100%
- % Ctrl [10]: 69%
- % Ctrl [11]: 87%
- % Ctrl [12]: 84%
- % Ctrl [13]: 91%
- % Ctrl [14]: 73%
- % Ctrl [15]: 75%
- % Ctrl ([16]; TYK2(JH2domain-pseudokinase), at 1 μM): 0%
- Kd ([16]; read-out: TYK2(JH2 domain-pseudokinase) Kd): 0.18 nM
- % Ctrl [17]: 79%
- % Ctrl [18]: 90%
- % Ctrl [19]: 98%
- % Ctrl [20]: 96%
- % Ctrl [21]: 100%
- % Ctrl [22]: 76%
- % Ctrl [23]: 87%
- % Ctrl [24]: 91%
- % Ctrl [25]: 92%
- % Ctrl [26]: 87%
- % Ctrl [27]: 94%
- % Ctrl [28]: 91%
- % Ctrl [29]: 83%
- % Ctrl [30]: 100%
- % Ctrl [31]: 93%
- % Ctrl [32]: 89%
- % Ctrl [33]: 87%
- % Ctrl [34]: 68%
- % Ctrl [35]: 64%
- % Ctrl [36]: 98%
- % Ctrl [37]: 86%
- % Ctrl [38]: 99%
- % Ctrl [39]: 95%
- % Ctrl [40]: 84%
- % Ctrl [41]: 94%
